Test results from article PMC3070799 (Neuropharmacology, 2011).
Read-outs that look alike come from different tables or passages of the source.

Columns and labels:
human 5-HT3AB receptors = target: T1, human 5-HT3AB receptors (Homo sapiens, UniProt O95264+P46098); experiment: Two-electrode voltage clamp of 5-HT-induced currents in Xenopus oocytes; format: cell-based
T1 construct: expressed in transfected cells; host or cells: Xenopus laevis oocytes (cRNA from pGEMHE)
T1 sequence (P46098 24-478): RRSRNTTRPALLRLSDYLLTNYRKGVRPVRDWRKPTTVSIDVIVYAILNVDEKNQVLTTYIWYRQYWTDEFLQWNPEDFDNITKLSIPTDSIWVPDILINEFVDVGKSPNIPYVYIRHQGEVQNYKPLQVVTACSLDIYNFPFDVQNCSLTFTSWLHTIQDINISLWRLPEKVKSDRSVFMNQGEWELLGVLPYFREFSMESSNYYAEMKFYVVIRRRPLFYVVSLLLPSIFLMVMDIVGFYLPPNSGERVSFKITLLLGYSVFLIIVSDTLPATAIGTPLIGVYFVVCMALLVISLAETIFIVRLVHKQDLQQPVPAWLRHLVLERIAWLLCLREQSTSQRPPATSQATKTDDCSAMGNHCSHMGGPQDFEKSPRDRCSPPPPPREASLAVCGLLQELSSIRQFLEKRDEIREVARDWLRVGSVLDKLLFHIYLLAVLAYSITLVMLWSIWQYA
T1 sequence (O95264 22-441): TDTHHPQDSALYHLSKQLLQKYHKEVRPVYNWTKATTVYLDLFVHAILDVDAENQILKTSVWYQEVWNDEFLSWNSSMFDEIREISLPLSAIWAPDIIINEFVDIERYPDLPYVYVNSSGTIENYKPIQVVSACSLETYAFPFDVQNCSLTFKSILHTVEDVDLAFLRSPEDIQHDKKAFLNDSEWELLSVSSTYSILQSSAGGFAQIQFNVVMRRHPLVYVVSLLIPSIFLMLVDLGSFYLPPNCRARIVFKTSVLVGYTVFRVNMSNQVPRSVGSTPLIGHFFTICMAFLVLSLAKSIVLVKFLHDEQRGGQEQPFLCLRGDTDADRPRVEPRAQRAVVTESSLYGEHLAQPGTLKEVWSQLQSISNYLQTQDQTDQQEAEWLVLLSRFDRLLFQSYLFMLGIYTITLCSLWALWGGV
Experimental: (§1) Stage V and VI oocytes were injected with 50 nl of ∼300 ng μl^−1 cRNA, and currents were recorded 1–4 days post-injection. A ratio of 1:3 (A:B) was used for the expression of heteromeric 5-HT3 receptors.
(§2) Xenopus laevis oocyte positive females were purchased from NASCO (Fort Atkinson, Wisconsin, USA) and maintained according to standard methods.
(§3) Currents were filtered at a frequency of 1 kHz. Micro-electrodes were fabricated from borosilicate glass (GC120TF-10, Harvard Apparatus, Edenbridge, Kent, UK) using a two stage horizontal pull (P-87, Sutter Instrument Company, California, USA) and filled with 3 M KCl. […] Oocytes were perfused with saline at a rate of 15 ml min^−1. Drug application was via a simple gravity fed system calibrated to run at the same rate. Extracellular saline contained (mM), 96 NaCl, 2 KCl, 1 MgCl2 and 5 mM HEPES; adjusted to pH 7.4 with NaOH.
(§4) Analysis and curve fitting was performed using Prism V3.02 (GraphPad Software, San Diego, California, USA, www.graphpad.com). Concentration-response data for each oocyte was normalised to the maximum current for that oocyte. For inhibition curves, antagonists were routinely co-applied in the presence of agonist. For PXN, oocytes were also pre-treated with the compound for 20 s. A 2 min wash was used between drug applications. The mean and S.E.M. for a series of oocytes was plotted against agonist or antagonist concentration and iteratively fitted (GraphPad Prism v3.02) to the following Hill equation:(1) IA=Imin+Imax−Imin/1+10^nH(logA50−logA) where A is the concentration of ligand present; IA is the current in the presence of ligand concentration A; Imin is the current when A = 0; Imax is the current when A = ∞ , A50 is the concentration of A which evokes a current equal to (Imax + Imin)/2; and nH is the Hill coefficient. Results are presented as mean ± S.E.M.. Statistical analysis was performed using ANOVA in conjunction with a Dunnett’s post-hoc test.

human 5-HT3A receptors = target: T2, human 5-HT3A receptors (Homo sapiens, UniProt P46098); experiment: Two-electrode voltage clamp of 5-HT-induced currents in Xenopus oocytes, incl. co-application; format: cell-based
T2 construct: expressed in transfected cells; host or cells: Xenopus laevis oocytes (cRNA from pGEMHE)
T2 sequence (P46098 24-478): T1 sequence (P46098 24-478)
Experimental: as §1, §2, §3, §4
97) • Scenario 1: Where compounds share a binding site it was assumed that the extent of binding would be determined by a competitive interaction between the compounds such that the proportion of binding sites occupied (Pocc) in the presence of two competing compounds is given by the following expression: (2) Pocc=AKA+BKB/1+AKA+BKB where A and B are the concentrations of two ligands and KA and KB are their affinity constants respectively.
In each individual experiment, for each combination of inhibitors, data values were obtained for IA, IB and IAB. From IA and IB predicted values of IAB1 and IAB2 were also derived. A two-way ANOVA was performed on values of IAB, IAB1 and IAB2 in which the distinction between IAB, IAB1 and IAB2 was treated as a fixed factor and the variation in levels of inhibition between experiments was treated as a random factor. Where the ANOVA indicated a significant difference (P < 0.05) between IAB, IAB1 and IAB2 a post-hoc analysis was carried out using the Waller–Duncan method to identify homogenous subsets with a significance level of 0.05 and a Type I /Type II error ratio if 100.
Our models were based on the following assumptions: 1. that the channel blocking compounds only effect the response that is seen when the channel is open. […] In the case of condition 5 it is possible that the binding of one compound may prevent access of another to its own site. However, in practice this will not influence the analysis since the functional consequence of the binding of both compounds compared to one will be the same, namely complete channel blockade.

glycine α1 receptors = target: glycine α1 receptors; parameters: method as in Yang et al., 2007; conditions: ref Yang et al., 2007; cited from earlier work
glycine α1β receptors = target: glycine α1β receptors; parameters: method as in Yang et al., 2007; conditions: ref Yang et al., 2007; cited from earlier work
[1] = abstract, 5-HT-induced responses, Xenopus oocytes, read-out: IC50
[2] = read-out: inhibition at the highest concentration used

| Structure (SMILES) | IC50 (human 5-HT3AB receptors; [1]) [µM] | IC50 (human 5-HT3AB receptors; inhibition of 5-HT EC50 response (28 μM 5-HT), oocytes, read-out: IC50) [µM] | inhibition at 1000 µM (human 5-HT3AB receptors; [2]) [%] | inhibition (in words) (human 5-HT3A receptors; 1 mM, seen in the 5-HT3A receptor only) | IC50 (human 5-HT3A receptors; [1]) [µM] | IC50 (human 5-HT3A receptors; inhibition of 5-HT EC50 response (1.7 μM 5-HT), oocytes, read-out: IC50) [µM] | inhibition at 1000 µM (human 5-HT3A receptors; [2]) [%] | IC50 (human 5-HT3AB receptors; IC50, inhibition of 5-HT EC50 response (28 μM 5-HT), oocytes) [µM] | Hill slope (human 5-HT3AB receptors; concentration-inhibition curve, 28 μM 5-HT) | IC50 (human 5-HT3AB receptors; pIC50, inhibition of 5-HT EC50 response (28 μM 5-HT), oocytes) [µM] | IC50 (glycine α1 receptors) [µM] | IC50 (human 5-HT3A receptors) [µM] | ratio of current amplitudes at +40 mV relative to −40 mV (voltage-dependence) (human 5-HT3A receptors; compared with absence of antagonist, Fig. 2E) | Hill slope (human 5-HT3A receptors; concentration-inhibition curve, 1.7 μM 5-HT) | IC50 (glycine α1β receptors) [µM] |
| --- | --- | --- | --- | --- | --- | --- | --- | --- | --- | --- | --- | --- | --- | --- | --- |
| C[C@@H]1C(=O)O[C@H]2C[C@@]34[C@H]5C[C@@H](C(C)(C)C)[C@]36[C@@H](OC(=O)[C@@H]6O)O[C@@]4(C(=O)O5)[C@]21O [GA, ginkgolide A] | > 1000 | > 1000 | ≤ 50 | minimal inhibition | > 1000 | > 1000 | ≤ 50 |  |  |  |  |  |  |  |  |
| CC(C)(O)[C@@H]1[C@H]2OC(=O)[C@@H]1[C@]1(O)C[C@H]3O[C@]34C(=O)O[C@H]2[C@]14C [PTN, picrotin] |  |  |  |  |  |  |  | 2900 | 0.99 ± 0.07 | 2950 | ~5 | 470 | unaltered | 1.33 ± 0.15 | ~30 |
